Laboratory results taken from patent publication US9212189B2, “Fluorescent probes for reactive sulfur species” (THE REGENTS OF THE UNIVERSITY OF CALIFORNIA, priority 2011, dated 2015).

What was measured:
[1] = Fluorescence response of 4-azido-1,8-naphthalimide to H2S
Experimental: FIG. 8. Fluorescence response of 10 μM 4-azido-1,8-naphthalimide to 100 μM H2S. Data were acquired at 25° C. in 20 mM HEPES buffered to pH 7.4 with excitation at λex=470 nm. Emission was collected between 495 and 650 nm. Time points represent 0, 15, 30, 45, and 60 min (red trace) after addition of 100 μM H2S. Reactions are not complete at these time points.

[2] = Fluorescence response of probe to H2S (NaSH) in HEPES buffer; settings: 10 μM probe, 100 μM NaSH, after one hour of reaction
Experimental: (§1) Millipore water was used to prepare all aqueous solutions. All spectroscopic measurements were performed in 20 mM HEPES buffer, pH 7.4. Fluorescence spectra were recorded on a Photon Technology International Quanta Master 4 L-format scanning spectrofluorometer (Lawrenceville, N.J.) equipped with an LPS-220B 75-W xenon lamp and power supply, A-1010B lamp housing with an integrated igniter, switchable 814 photon-counting/analog photomultiplier detection unit, and MD5020 motor driver. Samples for emission measurements were contained in 1-cm×0.1-cm quartz (1.5 mL volume, Starna, Atascadero, Calif.). Absorption spectra were recorded using a Varian Cary 50 spectrophotometer (Walnut Creek, Calif.).
A 10 μM solution of SF1 or SF2 in 20 mM HEPES buffered to pH 7.4 was prepared from a 5 mM stock solution of SF1 or SF2 in DMF in a 1.5 mL eppendorf tube. 10 μL of 10 mM stock solution of NaSH in degassed (by bubbling N2 for ˜30 min) 20 mM HEPES buffered at pH 7.4 was added (for a final concentration of 100 μM) and the mixture was vortexed for 10 s and then transferred to a cuvette. Emission spectra (λex=488 nm, λex=498-700 nm) were collected at 10, 20, 30, 40, 50, and 60 min. The spectrum at t=0 was acquired from a 10 μM solution of SF1 or SF2 without the addition of NaSH.
FIG. 2. Fluorescence responses of (a) 10 μM SF1 and (b) 10 μM SF2 to 100 μM H2S. […]

[3] = Selectivity tests: fluorescence responses to biologically relevant RSS, RNS and ROS; settings: for turn-on response for H2S relative to other RSS, ROS and RNS: 10 μM probe, 20 mM HEPES pH 7.4; for selectivity for H2S over abundant biologically relevant thiols: 5 mM glutathione and 5 mM cysteine (50× the amount of H2S tested); for response to most biologically relevant ROS or RNS: H2O2, tBuOOH, OCl−, NO2−, NO; for fluorescence response to other relevant RSS: thiosulfate, thiocyanate, S-nitroso glutathione, lipoic acid
Experimental: Selectivities for the SF1 and SF2 probes were measured by fluorescence responses (λex=488 nm, λem=525 nm) at 0, 15, 30, 45, and 60 min. All assays were performed in 20 mM HEPES buffered to pH 7.4. • H2S: 10 μL of a 10 mM stock solution of NaSH in degassed HEPES was added to 10 μM SF1 or SF2 in HEPES with 0.2% DMF. • Glutathione and cysteine: 2 μL of 5 mM SF1 or SF2 in DMF was added to 998 μL 5 mM glutathione or cysteine HEPES. • Lipoic acid: 10 μL of a 10 mM stock solution of lipoic acid in HEPES was added to 990 μL of 10 μM SF1 or SF2 in HEPES with 0.2% DMF. • Na2SO3: 10 μL of a 10 mM stock solution of Na2SO3 in HEPES was added to 990 μL of 10 μM SF1 or SF2 in HEPES with 0.2% DMF. • NaS2O3: 10 μL of a 10 mM stock solution of NaS2O3 in HEPES was added to 990 μL of 10 μM SF1 or SF2 in HEPES with 0.2% DMF. • KSCN: 10 μL of a 10 mM stock solution of KSCN in HEPES was added to 990 μL of 10 μM SF1 or SF2 in HEPES with 0.2% DMF. • S-nitrosoglutathione:^S4 10 μL of a 10 mM stock solution of S-nitroso glutathione in HEPES was added to 990 μL of 10 μM SF1 or SF2 in HEPES with 0.2% DMF. • NaNO2: 10 μL of a 10 mM stock solution of NaNO2 in HEPES was added to 990 μL of 10 μM SF1 or SF2 in HEPES with 0.2% DMF. • NO: 5 μL of a 10 mM stock solution of Proli-NONOATE in degassed (by bubbling N2 for ˜30 min) 10 mM NaOH in HEPES was added to 995 μL of a degassed (by bubbling N2 for ˜30 min) solution of 10 μM SF1 or SF2 in HEPES with 0.2% DMF. • H2O2: 10 μL of a 10 mM stock solution of H2O2 in HEPES was added to 990 μL of 10 μM SF1 or SF2 in HEPES with 0.2% DMF. • O2^−: 100 μL of a saturated solution of KO2 in DMSO (˜1 mM) was added to 900 μL of 10 μM SF1 or SF2 in HEPES with 0.2% DMF. • ^tBuOOH: 10 μL of a 10 mM stock solution of tBuOOH in HEPES buffered to was added to 990 μL of 10 μM SF1 or SF2 in HEPES with 0.2% DMF. • HOCl: 10 μL of a 10 mM stock solution of HOCl in HEPES was added to 990 μL of 10 μM SF1 or SF2 in HEPES with 0.2% DMF.
FIG. 5. Fluorescence responses of (a) 10 μM SF1 and (b) 10 μM SF2 to biologically relevant RSS, RNS, and ROS. Bars represent relative responses at 525 nm at 0, 15, 30, 45, and 60 min after addition of RSS, RNS, or ROS. Data shown are for 5 mM glutathione, 5 mM cysteine, and 100 μM for other RSS, RNS, and ROS. Data were acquired in 20 mM HEPES buffered at pH 7.4 with excitation at λex=488 nm. 1. H2S; 2. glutathione; 3. cysteine; 4. lipoic acid; 5. Na2SO3; 6. NaS2O3; 7. KSCN; 8. S-nitroso glutathione; 9. NaNO2; 10. NO; 11. H2O2; 12. O2^−; 13. ^tBuOOH; 14. HOCl.

HEK293T cells = assay: Confocal imaging of H2S detection in live HEK293T cells; format: cell-based; settings: for intracellular fluorescence intensity after NaSH: 5 μM probe 30 min, then 250 μM NaSH 30 min, excitation 488 nm; for background response in untreated cells: absence of exogenous H2S; for cell viability over the course of the experiments: bright field images co-localized with Hoescht nuclear staining
Experimental: HEK 293T cells were maintained in exponential growth as a monolayer in Dulbecco's Modified Eagle Medium (DMEM, Invitrogen) supplemented with 10% fetal bovine serum (FBS, Hyclone), and incubated at 37° C. in 5% CO2. One or two days before imaging, the cells were passaged and plated in phenol red-free medium on 4-well Lab-Tek borosilicate chambered coverglass slides (Nunc) and allowed to grow to 50-70% confluence. For all experiments, solutions of SF1 and SF2 were prepared in DMF (5 mM) and diluted into DMEM at the desired working concentrations (5 μM). NaSH was delivered from a stock solution of 25 mM in degassed (by bubbling N2 for ˜30 min) Dulbecco's Phosphate Buffered Saline (DPBS). Cells were treated with SF1 or SF2 for one hour, with NaSH (50-250 μM) or blank control added for the final 30 minutes. Images were collected at 30 min after NaSH addition. For nuclear imaging studies, cells were incubated with 1 μM Hoechst 33342 at 37° C. for 30 min prior to imaging.
Confocal Imaging Experiments. Confocal fluorescence imaging studies were performed with a Zeiss laser scanning microscope 710 with a 40× water objective lens, with Zen 2009 software (Carl Zeiss). SF1 and SF2 were excited using a 488 nm Ar laser, and emission collected using a META detector between 500 and 650 nm. Hoechst 33342 was excited with a 405 nm diode laser, and emission collected using a META detector between 450 and 500 nm. The cells were imaged at 37° C. and 5% CO2 throughout the course of the experiment. Image analysis was performed using ImageJ (National Institute of Health).
FIG. 6. Confocal images of H2S detection in live HEK293T cells using SF1 and SF2. (a) HEK293T cells incubated with SF1 for 60 min at 37° C. (b) HEK293T cells incubated with SF1 for 60 min at 37° C. with 250 μM NaSH added for the final 30 min. (c) Brightfield images of the same field of cells in (b) overlaid with images of 1 μM Hoescht stain at 37° C. (d) HEK293T cells incubated with SF2 for 60 min at 37° C. (e) HEK293T cells incubated with SF2 for 60 min at 37° C. with 250 μM NaSH added for the final 30 min. (f) Brightfield images of the same field of cells in (e) overlaid with images of 1 μM Hoescht stain at 37° C. Scale bars represent […].
FIG. 7. Mean fluorescence intensity of confocal images of H2S detected in live HEK293T cells treated with 0, 50, 100, and 250 μM H2S. (a) HEK293T cells were incubated with SF1 for 60 min at 37° C. with the indicated amount of H2S added for the final 30 min. (b) HEK293T cells were incubated with SF2 for 60 min at 37° C. with the indicated amount of H2S added for the final 30 min. Data represent the mean fluorescence intensity of distinct fields (n=4). Error bars are ±s.e.m.

[4] = Spectroscopic properties (absorbance, emission, quantum yield); format: physicochemical; settings: for absorption of the protected probe in the visible region: protected form, closed lactone conformation; for ε (extinction coefficient) of reaction product: at λmax; for Φ (quantum yield) of reaction product: fluorescein as standard, 20 mM HEPES pH 7.4; for λmax (absorbance) of reaction product: new absorbance band in the visible region; for λem of reaction product: product formed from 10 μM probe with 100 μM NaSH
Experimental: as §1
FIG. 1. Absorbance spectra of (a) 10 μM SF1 (b) 10 μM SF2, and 10 μM of rhodamine products (c) tert-butoxycarbonyl-rhodamine 110 and (d) morpholinourea-rhodamine 110.
Quantum yields were determined using fluorescein as a standard according to a published method.^S3 For each compound and fluorescein, the absorbance spectra were measured within an absorbance range of 0.01 to 0.1. The quantum yield was calculated according to the equation: Φsample=Φstandard (Gradsample/Gradstandard)[…], where Φ is the quantum yield, Φstandard=0.95 in 0.1 M NaOH, Grad is the slope of the plot of […], and η is the refractive index of the solvent.

Compound | emission compared with SF1 and SF2 [1] | cellular permeability (HEK293T cells; live HEK293T cells) | turn-on response (fluorescence) [2] [fold] | selectivity for H2S versus superoxide (O2−) [3] | turn-on response for H2S relative to other RSS, ROS and RNS [3] | selectivity for H2S over abundant biologically relevant thiols [3] | response to most biologically relevant ROS or RNS [3] | fluorescence response to other relevant RSS ([3]; sulfite) | intracellular fluorescence intensity after NaSH (HEK293T cells) | background response in untreated cells (HEK293T cells) | cell viability over the course of the experiments (HEK293T cells) | absorption of the protected probe in the visible region [4] | fluorescence properties in vitro as compared to SF1 ([3]; greater response to H2S, lower background reactivity, better selectivity versus glutathione, sulfite, O2−) | staining of cellular nuclei (HEK293T cells; live HEK293T cells) | ε (extinction coefficient) of reaction product [4] | Φ (quantum yield) of reaction product [4] | λmax (absorbance) of reaction product [4] [nm] | λem of reaction product [4] [nm]
[N-]=[N+]=Nc1ccc2c3c(cccc13)C(=O)NC2=O [4-Azido-1,8-naphthalimide] | red-shifted emission | – | – | – | – | – | – | – | – | – | – | – | – | – | – | – | – | –
morpholinourea-rhodamine 110 [Product from SF2] | – | – | – | – | – | – | – | – | – | – | – | – | – | – | 75,000 M^−1cm^−1 | 0.60 | 492 | 525
tert-butoxycarbonyl-rhodamine 110 [Product from SF1] | – | – | – | – | – | – | – | – | – | – | – | – | – | – | 61,000 M^−1cm^−1 | 0.51 | 490 | 525

Now from value to compound, other results behind:

emission compared with SF1 and SF2 [1] | cellular permeability (HEK293T cells; live HEK293T cells) | Compound | turn-on response (fluorescence) [2] [fold] | selectivity for H2S versus superoxide (O2−) [3] | turn-on response for H2S relative to other RSS, ROS and RNS [3] | selectivity for H2S over abundant biologically relevant thiols [3] | response to most biologically relevant ROS or RNS [3] | fluorescence response to other relevant RSS ([3]; sulfite) | intracellular fluorescence intensity after NaSH (HEK293T cells) | background response in untreated cells (HEK293T cells) | cell viability over the course of the experiments (HEK293T cells) | absorption of the protected probe in the visible region [4] | fluorescence properties in vitro as compared to SF1 ([3]; greater response to H2S, lower background reactivity, better selectivity versus glutathione, sulfite, O2−) | staining of cellular nuclei (HEK293T cells; live HEK293T cells) | ε (extinction coefficient) of reaction product [4] | Φ (quantum yield) of reaction product [4] | λmax (absorbance) of reaction product [4] [nm] | λem of reaction product [4] [nm]
– | exceptional cellular permeability | CC(C)(C)OC(=O)Nc1ccc2c(c1)Oc1cc(N=[N+]=[N-])ccc1C21OC(=O)c2ccccc21 (stereo not drawn) [SF1, Sulfidefluor-1] | 7 | good selectivity | selective turn-on response | high selectivity | do not respond | negligible or small fluorescence responses | patent increase in intracellular fluorescence intensity | little background response | confirm the cell viability | no absorption features in the visible region | – | – | – | – | – | –
– | exceptional cellular permeability | [N-]=[N+]=Nc1ccc2c(c1)Oc1cc(NC(=O)N3CCOCC3)ccc1C21OC(=O)c2ccccc21 (stereo not drawn) [SF2, Sulfidefluor-2] | 9 | good selectivity | selective turn-on response | high selectivity | do not respond | negligible or small fluorescence responses | patent increase in intracellular fluorescence intensity | little background response | confirm the cell viability | no absorption features in the visible region | more favorable fluorescence properties in vitro | significant staining of the cellular nuclei | – | – | – | –
